# Molecular target: recombinant human PI3Kγ (aa144-1102)-6His (Homo sapiens (Human), UniProt P48736)
# Experiment: Test A: Enzymatic Activity Assay for Rec Human PI3Kγ (ADP-Glo)
# Type: biochemical
# Conditions: 20 μM ATP, 80 μM DiC8-PIP2, 1.2 nM PI3Kγ, 15 min pre-incubation, 60 min reaction
# Protocol: Pharmacological Activity Test A: Enzymatic Activity Assay for Rec Human PI3Kγ
# The activity of recombinant human PI3Kγ (aa144-1102)-6His was determined by measuring the ADP level after phosphorylation of DiC8-PIP2 using a commercially available ADP-Glo™ kit from Promega. The assay was carried out in white low volume 384 well plates in a final volume of 14 μl at rt. The assay conditions contained the following: 50 mM Tris buffer pH 7.4, 2.1 mM DTT, 3 mM MgCl2, 0.05% CHAPS, 20 μM ATP, 80 μM DiC8-PIP2 and 1.2 nM PI3Kγ. […] Routinely, inhibitors were pre-incubated with 3 μl of PI3Kγ for 15 min prior to the addition of […] substrate mixture for a further 60 min enzyme reaction. The phosphorylation was stopped with the addition of 3 μl ADP-Glo™ reagent (stop solution) followed by a 40 min incubation. Prior to detection 6 μl of ADP-Glo™ Kinase Detection Reagent was added and the plates were read in a micro plate reader using a Luminescence filter.
# recombinant human PI3Kγ (aa144-1102)-6His, sequence (P48736 144-1102): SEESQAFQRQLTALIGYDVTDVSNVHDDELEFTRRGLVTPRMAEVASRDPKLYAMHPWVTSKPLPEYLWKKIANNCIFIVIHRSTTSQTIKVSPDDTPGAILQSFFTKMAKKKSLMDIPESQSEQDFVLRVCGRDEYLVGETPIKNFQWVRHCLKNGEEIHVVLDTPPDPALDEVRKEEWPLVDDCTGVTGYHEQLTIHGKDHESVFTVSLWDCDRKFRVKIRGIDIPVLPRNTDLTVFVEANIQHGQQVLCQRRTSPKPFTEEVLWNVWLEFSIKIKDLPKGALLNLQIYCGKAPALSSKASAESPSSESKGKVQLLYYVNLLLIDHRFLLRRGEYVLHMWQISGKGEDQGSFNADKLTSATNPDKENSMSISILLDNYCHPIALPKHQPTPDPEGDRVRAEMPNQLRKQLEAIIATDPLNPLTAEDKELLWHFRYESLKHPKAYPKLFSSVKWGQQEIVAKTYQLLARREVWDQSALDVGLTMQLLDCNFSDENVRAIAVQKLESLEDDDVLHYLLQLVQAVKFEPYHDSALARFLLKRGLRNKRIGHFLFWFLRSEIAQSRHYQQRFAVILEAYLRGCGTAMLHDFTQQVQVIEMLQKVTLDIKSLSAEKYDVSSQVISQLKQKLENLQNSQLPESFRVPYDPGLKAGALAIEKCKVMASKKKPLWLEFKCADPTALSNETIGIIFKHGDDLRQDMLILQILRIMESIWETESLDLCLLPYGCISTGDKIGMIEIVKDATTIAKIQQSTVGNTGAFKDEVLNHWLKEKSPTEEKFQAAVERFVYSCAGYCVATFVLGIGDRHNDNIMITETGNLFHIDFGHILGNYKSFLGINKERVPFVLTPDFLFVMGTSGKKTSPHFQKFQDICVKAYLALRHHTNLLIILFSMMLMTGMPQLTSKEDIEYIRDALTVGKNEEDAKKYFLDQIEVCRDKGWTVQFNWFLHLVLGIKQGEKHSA
row,Structure (SMILES),"PI3Kγ activity, pIC50"
1,"CCS(=O)(=O)Nc1cc(-c2sc(NC(C)=O)nc2C)cc2c1C(=O)N([C@@H](C)C1CC1)C2 [Example 25, N-(5-{2-[(1S)-1-Cyclopropylethyl]-7-[(ethylsulfonyl)amino]-1-oxo-2,3-dihydro-1H-isoindol-5-yl}-4-methyl-1,3-thiazol-2-yl)acetamide]",9.1
2,"CCCS(=O)(=O)Nc1cc(-c2sc(NC(C)=O)nc2C)cc2c1C(=O)N([C@@H](C)C1CC1)C2 [Example 24, N-(5-{2-[(1S)-1-Cyclopropylethyl]-1-oxo-7-[(propylsulfonyl)amino]-2,3-dihydro-1H-isoindol-5-yl}-4-methyl-1,3-thiazol-2-yl)acetamide]",9.0
3,"CNS(=O)(=O)c1cc(-c2sc(NC(C)=O)nc2C)cc2c1C(=O)N(C(C)(C)C1CC1)C2 [Example 32, N-{5-[2-(2-Cyclopropylpropan-2-yl)-7-(methylsulfamoyl)-1-oxo-2,3-dihydro-1H-isoindol-5-yl]-4-methyl-1,3-thiazol-2-yl}acetamide]",9.0
4,"CNS(=O)(=O)c1cc(-c2sc(NC(C)=O)nc2C)cc2c1C(=O)N([C@@H](C)C(C)(C)C)C2 [Example 33, N-(5-{2-[(2S)-3,3-Dimethylbutan-2-yl]-7-(methylsulfamoyl)-1-oxo-2,3-dihydro-1H-isoindol-5-yl}-4-methyl-1,3-thiazol-2-yl)acetamide]",8.8

# Results, then the compound that gave them:
row,"PI3Kγ activity, pIC50",Structure (SMILES)
1,9.3,"CC(=O)Nc1nc(C)c(-c2cc3c(c(S(=O)(=O)Nc4cccc(C#N)c4)c2)C(=O)N([C@@H](C)C2CC2)C3)s1 [Example 36, N-(5-{7-[(3-Cyanophenyl)sulfamoyl]-2-[(1S)-1-cyclopropylethyl]-1-oxo-2,3-dihydro-1H-isoindol-5-yl}-4-methyl-1,3-thiazol-2-yl)acetamide]"
2,9.0,"CC(=O)Nc1nc(C)c(-c2cc3c(c(S(=O)(=O)NCC4CC4)c2)C(=O)N([C@@H](C)C2CC2)C3)s1 [Example 13, N-(5-{2-[(1S)-1-Cyclopropylethyl]-7-[(cyclopropylmethyl)sulfamoyl]-1-oxo-2,3-dihydro-1H-isoindol-5-yl}-4-methyl-1,3-thiazol-2-yl)acetamide]"
3,9.1,"CC(=O)Nc1nc(C)c(-c2cc3c(c(S(=O)(=O)N(C)C)c2)C(=O)N([C@@H](C)C2CC2)C3)s1 [Example 7, N-(5-{2-[(1S)-1-Cyclopropylethyl]-7-(dimethylsulfamoyl)-1-oxo-2,3-dihydro-1H-isoindol-5-yl}-4-methyl-1,3-thiazol-2-yl)acetamide]"
4,9.0,"CC(=O)Nc1nc(C)c(-c2cc3c(c(S(=O)(=O)Nc4cccc(C#N)c4)c2)C(=O)N(C(C)C)C3)s1 [Example 37, N-(5-{7-[(3-Cyanophenyl)sulfamoyl]-1-oxo-2-(propan-2-yl)-2,3-dihydro-1H-isoindol-5-yl}-4-methyl-1,3-thiazol-2-yl)acetamide]"

# Same assay, conditions: 20 μM ATP, 80 μM DiC8-PIP2, 1.2 nM PI3Kγ, 15 min pre-incubation, 60 min reaction; read-out: PI3Kγ activity, pIC50 (converted)
row,IC50,Structure (SMILES)
1,0.398 nM,"CC(=O)Nc1nc(C)c(-c2cc3c(c(S(=O)(=O)NCC4(CF)CC4)c2)C(=O)N([C@@H](C)C2CC2)C3)s1 [Example 19, N-(5-{2-[(1S)-1-Cyclopropylethyl]-7-({[1-(fluoromethyl)cyclopropyl]methyl}sulfamoyl)-1-oxo-2,3-dihydro-1H-isoindol-5-yl}-4-methyl-1,3-thiazol-2-yl)acetamide]"
2,0.794 nM,"CC(=O)Nc1ncc(-c2cc3c(c(NS(C)(=O)=O)c2)C(=O)N([C@@H](C)C2CC2)C3)s1 [Example 22, N-(5-{2-[(1S)-1-Cyclopropylethyl]-7-[(methylsulfonyl)amino]-1-oxo-2,3-dihydro-1H-isoindol-5-yl}-1,3-thiazol-2-yl)acetamide]"

# — US10858355B2, “Inhibitors of phosphatidylinositol 3-kinase gamma” (AstraZeneca AB, priority 2016, dated 2020)
